Measurements published in ChEMBL document CHEMBL2029316, “Linker-based hemisuccinate derivatives of artemisinin: synthesis and antimalarial assessment against multidrug-resistant Plasmodium yoelii nigeriensis in mice” (J Med Chem, 2012).
Calls of active or inactive are those of the source. The calls are words filed in the database; no cut-off is given here.

Assays:
[1] = tested on: Plasmodium yoelii nigeriensis; assay: Antimalarial activity against chloroquine-, mefloquine-, halofantrine-resistant Plasmodium yoelii nigeriensis blood stream schizonts infected in Swiss mouse assessed as suppression of parasitemia at 48 mg/kg, im administered once daily for 4 days relative to control; assay type: functional; settings: route intramuscular
[2] = Lipophilicity, log P of the compound; assay type: physicochemical; settings: octanol/water
[3] = tested on: Plasmodium yoelii nigeriensis; assay: Antimalarial activity against chloroquine-, mefloquine-, halofantrine-resistant Plasmodium yoelii nigeriensis blood stream schizonts infected in Swiss mouse assessed as disease cured mouse at 48 mg/kg, im administered once daily for 4 days measured on day 28; assay type: functional, organism-based; parameters: dose 48 mg/kg
[4] = tested on: Plasmodium yoelii nigeriensis; assay: Antimalarial activity against chloroquine-, mefloquine-, halofantrine-resistant Plasmodium yoelii nigeriensis blood stream schizonts infected in Swiss mouse assessed as disease cured mouse at 24 mg/kg, im administered once daily for 4 days measured on day 28; assay type: functional, organism-based; parameters: dose 24 mg/kg
[5] = tested on: Plasmodium yoelii nigeriensis; assay: Antimalarial activity against chloroquine-, mefloquine-, halofantrine-resistant Plasmodium yoelii nigeriensis blood stream schizonts infected in Swiss mouse assessed as suppression of parasitemia at 24 mg/kg, im administered once daily for 4 days relative to control; assay type: functional; settings: route intramuscular
[6] = tested on: Plasmodium yoelii nigeriensis; assay: Antimalarial activity against chloroquine-, mefloquine-, halofantrine-resistant Plasmodium yoelii nigeriensis blood stream schizonts infected in Swiss mouse assessed as suppression of parasitemia at 3 mg/kg, im administered once daily for 4 days relative to control; assay type: functional; settings: route intramuscular
[7] = tested on: Plasmodium yoelii nigeriensis; assay: Antimalarial activity against chloroquine-, mefloquine-, halofantrine-resistant Plasmodium yoelii nigeriensis blood stream schizonts infected in Swiss mouse assessed as disease cured mouse at 12 mg/kg, im administered once daily for 4 days measured on day 28; assay type: functional, organism-based; parameters: dose 12 mg/kg
[8] = tested on: Plasmodium yoelii nigeriensis; assay: Antimalarial activity against chloroquine-, mefloquine-, halofantrine-resistant Plasmodium yoelii nigeriensis blood stream schizonts infected in Swiss mouse assessed as suppression of parasitemia at 12 mg/kg, im administered once daily for 4 days relative to control; assay type: functional; settings: route intramuscular
[9] = tested on: Plasmodium yoelii nigeriensis; assay: Antimalarial activity against chloroquine-, mefloquine-, halofantrine-resistant Plasmodium yoelii nigeriensis blood stream schizonts infected in Swiss mouse assessed as suppression of parasitemia at 6 mg/kg, im administered once daily for 4 days relative to control; assay type: functional; settings: route intramuscular
[10] = Drug degradation in aqueous NaHCO3 under ambient temperature within 48 hrs; assay type: physicochemical; settings: buffer
[11] = Drug degradation in aqueous Na2CO3 under ambient temperature within 48 hrs; assay type: physicochemical; settings: buffer
[12] = tested on: Plasmodium yoelii nigeriensis; assay: Antimalarial activity against chloroquine-, mefloquine-, halofantrine-resistant Plasmodium yoelii nigeriensis blood stream schizonts infected in Swiss mouse assessed as disease cured mouse at 3 mg/kg, im administered once daily for 4 days measured on day 28; assay type: functional, organism-based; parameters: dose 3 mg/kg
[13] = tested on: Plasmodium yoelii nigeriensis; assay: Antimalarial activity against chloroquine-, mefloquine-, halofantrine-resistant Plasmodium yoelii nigeriensis blood stream schizonts infected in Swiss mouse assessed as disease cured mouse at 6 mg/kg, im administered once daily for 4 days measured on day 28; assay type: functional, organism-based; parameters: dose 6 mg/kg
[14] = tested on: Plasmodium yoelii nigeriensis; assay: Antimalarial activity against chloroquine-, mefloquine-, halofantrine-resistant Plasmodium yoelii nigeriensis infected in Swiss mouse assessed as protection from infection at 3 to 48 mg/kg, im administered once daily for 4 days measured on day 28 relative to artesunic acid; assay type: functional; settings: dose mg/kg 3-48; route intramuscular

C[C@H]1[C@@H](OCCOCCOC(=O)CCC(=O)O)O[C@@H]2O[C@@]3(C)CC[C@H]4[C@H](C)CC[C@@H]1[C@@]24OO3
Activity [1]: 100%
logP [2]: 2.73

C[C@H]1[C@@H](OCCCOC(=O)CCC(=O)O)O[C@@H]2O[C@@]3(C)CC[C@H]4[C@H](C)CC[C@@H]1[C@@]24OO3
Activity [1]: 100%
Activity [3]: inactive
logP [2]: 2.99

C[C@H]1[C@@H](OCCCCCCCCCCCCO)O[C@@H]2O[C@@]3(C)CC[C@H]4[C@H](C)CC[C@@H]1[C@@]24OO3
Activity [4]: inactive
Activity [1]: 100%
logP [2]: 6.89
Activity [5]: 100%

C[C@H]1[C@@H](OCCCCCOC(=O)CCC(=O)O)O[C@@H]2O[C@@]3(C)CC[C@H]4[C@H](C)CC[C@@H]1[C@@]24OO3
Activity [4]: inactive
Activity [1]: 94.91%
Activity [3]: inactive
logP [2]: 3.86
Activity [5]: 92.73%

C[C@H]1[C@@H](OCCCCO)O[C@@H]2OC3(C)CC[C@H]4[C@H](C)CC[C@@H]1[C@@]24OO3
Activity [6]: 98.3%
Activity [4]: Active
Activity [1]: 100%
Activity [7]: Active
Activity [8]: 100%
Activity [3]: Active
logP [2]: 3.55
Activity [5]: 100%
Activity [9]: 100%

C[C@H]1[C@@H](OCCOCCOCCO)O[C@@H]2O[C@@]3(C)CC[C@H]4[C@H](C)CC[C@@H]1[C@@]24OO3
Activity [4]: inactive
Activity [1]: 100%
Activity [7]: inactive
Activity [8]: 100%
logP [2]: 2.68
Activity [5]: 100%

C[C@H]1[C@@H](OCCO)O[C@@H]2O[C@@]3(C)CC[C@H]4[C@H](C)CC[C@@H]1[C@@]24OO3
Activity [4]: Active
Activity [1]: 100%
Activity [8]: 100%
Activity [3]: Active
logP [2]: 2.99
Activity [5]: 100%
Activity [9]: 100%

C[C@H]1[C@@H](OCCCCCCOC(=O)CCC(=O)O)O[C@@H]2O[C@@]3(C)CC[C@H]4[C@H](C)CC[C@@H]1[C@@]24OO3
Activity [1]: 98.55%
Activity [3]: inactive
logP [2]: 4.28

C[C@H]1[C@@H](OCCOCCOCCOCCOC(=O)CCC(=O)O)O[C@@H]2O[C@@]3(C)CC[C@H]4[C@H](C)CC[C@@H]1[C@@]24OO3
Activity [1]: 97%
Activity [3]: inactive
logP [2]: 2.42

C[C@H]1[C@@H](OCCCCCCCCCCOC(=O)CCC(=O)O)O[C@@H]2O[C@@]3(C)CC[C@H]4[C@H](C)CC[C@@H]1[C@@]24OO3
Activity [1]: 100%
Activity [7]: inactive
Activity [8]: 98.18%
Drug degradation [10]: Not Active
Activity [3]: Active
logP [2]: 5.95
Activity [5]: 100%
Drug degradation [11]: Not Active

C[C@H]1[C@@H](OCCOC(=O)CCC(=O)O)O[C@@H]2O[C@@]3(C)CC[C@H]4[C@H](C)CC[C@@H]1[C@@]24OO3
Activity [1]: 100%
Activity [3]: inactive
logP [2]: 2.89

C[C@H]1[C@@H](OCCCO)O[C@@H]2O[C@@]3(C)CC[C@H]4[C@H](C)CC[C@@H]1[C@@]24OO3
Activity [6]: 98.3%
Activity [4]: Active
Activity [1]: 100%
Activity [12]: inactive
Activity [8]: 100%
Activity [3]: Active
logP [2]: 3.1
Activity [5]: 100%
Activity [9]: 100%

C[C@H]1[C@@H](OCCCCCCO)O[C@@H]2O[C@@]3(C)CC[C@H]4[C@H](C)CC[C@@H]1[C@@]24OO3
Activity [6]: 100%
Activity [4]: Active
Activity [1]: 100%
Activity [12]: inactive
Activity [7]: Active
Activity [8]: 100%
Activity [3]: Active
logP [2]: 4.38
Activity [5]: 100%
Activity [9]: 100%

C[C@H]1[C@@H](OCCOCCO)O[C@@H]2O[C@@]3(C)CC[C@H]4[C@H](C)CC[C@@H]1[C@@]24OO3
Activity [4]: Active
Activity [1]: 100%
Activity [8]: 100%
Activity [3]: Active
logP [2]: 2.83
Activity [5]: 100%
Activity [9]: 100%
Activity [13]: inactive

C[C@H]1[C@@H](OCCCCCO)O[C@@H]2O[C@@]3(C)CC[C@H]4[C@H](C)CC[C@@H]1[C@@]24OO3
Activity [4]: Active
Activity [1]: 100%
Activity [7]: Active
Activity [8]: 100%
Activity [3]: Active
logP [2]: 3.97
Activity [5]: 100%
Activity [9]: 100%

C[C@H]1[C@@H](OCCCCCCCCOC(=O)CCC(=O)O)O[C@@H]2O[C@@]3(C)CC[C@H]4[C@H](C)CC[C@@H]1[C@@]24OO3
Activity [4]: Active
Activity [1]: 100%
Activity [7]: inactive
Activity [8]: 100%
Activity [3]: Active
logP [2]: 5.12
Activity [5]: 100%
fold change (FC) [14]: 2

C[C@H]1[C@@H](OCCCCCCCCCOC(=O)CCC(=O)O)O[C@@H]2O[C@@]3(C)CC[C@H]4[C@H](C)CC[C@@H]1[C@@]24OO3 (mixture of isomers)
Activity [4]: inactive
Activity [1]: 100%
Activity [7]: inactive
Activity [8]: 67.27%
Activity [3]: Active
logP [2]: 5.53
Activity [5]: 93.09%

C[C@H]1[C@@H](OCCCCCCCCO)O[C@@H]2O[C@@]3(C)CC[C@H]4[C@H](C)CC[C@@H]1[C@@]24OO3
Activity [4]: Active
Activity [1]: 100%
Activity [7]: Active
Activity [8]: 100%
Activity [3]: Active
logP [2]: 5.22
Activity [5]: 100%
Activity [9]: 100%

C[C@H]1[C@H](OC(=O)CCC(=O)O)O[C@@H]2O[C@@]3(C)CC[C@H]4[C@H](C)CC[C@@H]1[C@@]24OO3 [ARTESUNATE]
Activity [4]: inactive
Activity [1]: 100%
Activity [7]: inactive
Activity [8]: 96.36%
Drug degradation [10]: Active
Activity [3]: Active
Activity [5]: 100%
Drug degradation [11]: Active

C[C@H]1[C@@H](OCCOCCOCCOC(=O)CCC(=O)O)O[C@@H]2O[C@@]3(C)CC[C@H]4[C@H](C)CC[C@@H]1[C@@]24OO3
Activity [1]: 92%
logP [2]: 2.54

CCO[C@H]1O[C@@H]2O[C@@]3(C)CC[C@H]4[C@H](C)CC[C@@H]([C@H]1C)[C@@]24OO3 [ARTEMOTIL]
Activity [6]: 100%
Activity [12]: inactive
Activity [9]: 100%
Activity [13]: Active

C[C@H]1[C@@H](OCCCCOC(=O)CCC(=O)O)O[C@@H]2O[C@@]3(C)CC[C@H]4[C@H](C)CC[C@@H]1[C@@]24OO3
Activity [1]: 100%
logP [2]: 3.45

C[C@H]1[C@@H](OCCCCCCCCCCO)O[C@@H]2O[C@@]3(C)CC[C@H]4[C@H](C)CC[C@@H]1[C@@]24OO3
Activity [1]: 100%
Activity [7]: inactive
Activity [8]: 100%
Activity [3]: Active
logP [2]: 6.05
Activity [5]: 100%
Activity [9]: 100%
Activity [13]: inactive

C[C@H]1[C@@H](OCCOCCOCCOCCO)O[C@@H]2O[C@@]3(C)CC[C@H]4[C@H](C)CC[C@@H]1[C@@]24OO3
Activity [4]: inactive
Activity [1]: 100%
Activity [7]: inactive
Activity [8]: 100%
logP [2]: 2.52
Activity [5]: 100%

C[C@H]1[C@@H](OCCCCCCCCCCCCOC(=O)CCC(=O)O)O[C@@H]2O[C@@]3(C)CC[C@H]4[C@H](C)CC[C@@H]1[C@@]24OO3
Activity [4]: Active
Activity [1]: 100%
Activity [7]: inactive
Activity [8]: 71.27%
Activity [3]: Active
logP [2]: 6.78
Activity [5]: 100%
Activity [9]: 57.09%
fold change (FC) [14]: 2
Activity [13]: inactive
